The values below are quoted from earlier work in patent US20230355508A1, “TREATING NEUROPATHIC PAIN IN SPINAL CORD INJURED INDIVIDUALS” (CNS Biosciences, Inc., priority 2016, published 2023).

Read-outs that look alike come from different tables or passages of the source.

This series has as its system neuropathic pain following spinal cord injury. The conditions noted are these: Finnerup et al., Scandinavian Journal of Pain 2009; for relief of neuropathic pain following spinal cord injury: patients with neuropathic pain following SCI.

Take `CC[C@@H](C(N)=O)N1CCCC1=O` (single isomer, unassigned) [levetiracetam]: the “relief of neuropathic pain following spinal cord injury” value is “does not relieve”. In addition, where the note is “patients with SCI”, the “relief of spasm severity following spinal cord injury” value is recorded as “does not relieve”. Also, the “relief of neuropathic pain following spinal cord injury” value (listed as Levetiracetam) was “no analgesic or other benefit”.
